In ChEMBL document CHEMBL3879901, “Substituted isoquinolin-1(2H)-ones, and methods of use thereof” (2012):

How the values were obtained:
[1] = Antiproliferative activity against Balb/c mouse splenic B cells preincubated for 30 mins followed by LPS or F(ab')2 donkey anti-mouse IgM and recombinant mouse IL4 stimulation measured after 72 hrs by Alamar Blue reduction assay; assay type: functional, cell-based
[2] = target: PI3-kinase p110-delta/p85-alpha (Homo sapiens, UniProt O00329); experiment: Inhibition of N-terminal His6-tagged recombinant full-length human p110delta/untagged recombinant full length p85alpha expressed in baculovirus infected Sf21 cells using phosphatidylinositol as substrate in presence of gamma-32P-ATP after 5 mins by thin layer chromatographic method
Chain of PI3-kinase p110-delta/p85-alpha (P27986 whole entry): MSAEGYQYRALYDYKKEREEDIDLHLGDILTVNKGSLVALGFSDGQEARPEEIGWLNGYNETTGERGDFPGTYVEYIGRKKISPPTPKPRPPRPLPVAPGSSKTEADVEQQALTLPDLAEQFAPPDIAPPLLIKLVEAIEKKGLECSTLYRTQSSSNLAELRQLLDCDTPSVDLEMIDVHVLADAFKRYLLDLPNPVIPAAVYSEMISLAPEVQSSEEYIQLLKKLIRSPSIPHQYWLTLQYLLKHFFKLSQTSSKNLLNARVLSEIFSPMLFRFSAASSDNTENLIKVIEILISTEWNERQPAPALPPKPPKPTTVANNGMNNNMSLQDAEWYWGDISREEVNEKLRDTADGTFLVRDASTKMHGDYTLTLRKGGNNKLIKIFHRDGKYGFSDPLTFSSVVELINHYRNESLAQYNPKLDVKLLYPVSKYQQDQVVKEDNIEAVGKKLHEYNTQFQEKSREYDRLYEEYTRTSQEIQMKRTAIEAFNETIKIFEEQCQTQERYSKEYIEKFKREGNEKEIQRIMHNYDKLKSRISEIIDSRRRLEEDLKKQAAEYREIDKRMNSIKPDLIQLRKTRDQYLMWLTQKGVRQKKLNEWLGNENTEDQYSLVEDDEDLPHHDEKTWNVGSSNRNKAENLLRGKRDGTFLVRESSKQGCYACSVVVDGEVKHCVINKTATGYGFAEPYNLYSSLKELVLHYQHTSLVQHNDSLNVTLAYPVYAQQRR
Chain of PI3-kinase p110-delta/p85-alpha (O00329 whole entry): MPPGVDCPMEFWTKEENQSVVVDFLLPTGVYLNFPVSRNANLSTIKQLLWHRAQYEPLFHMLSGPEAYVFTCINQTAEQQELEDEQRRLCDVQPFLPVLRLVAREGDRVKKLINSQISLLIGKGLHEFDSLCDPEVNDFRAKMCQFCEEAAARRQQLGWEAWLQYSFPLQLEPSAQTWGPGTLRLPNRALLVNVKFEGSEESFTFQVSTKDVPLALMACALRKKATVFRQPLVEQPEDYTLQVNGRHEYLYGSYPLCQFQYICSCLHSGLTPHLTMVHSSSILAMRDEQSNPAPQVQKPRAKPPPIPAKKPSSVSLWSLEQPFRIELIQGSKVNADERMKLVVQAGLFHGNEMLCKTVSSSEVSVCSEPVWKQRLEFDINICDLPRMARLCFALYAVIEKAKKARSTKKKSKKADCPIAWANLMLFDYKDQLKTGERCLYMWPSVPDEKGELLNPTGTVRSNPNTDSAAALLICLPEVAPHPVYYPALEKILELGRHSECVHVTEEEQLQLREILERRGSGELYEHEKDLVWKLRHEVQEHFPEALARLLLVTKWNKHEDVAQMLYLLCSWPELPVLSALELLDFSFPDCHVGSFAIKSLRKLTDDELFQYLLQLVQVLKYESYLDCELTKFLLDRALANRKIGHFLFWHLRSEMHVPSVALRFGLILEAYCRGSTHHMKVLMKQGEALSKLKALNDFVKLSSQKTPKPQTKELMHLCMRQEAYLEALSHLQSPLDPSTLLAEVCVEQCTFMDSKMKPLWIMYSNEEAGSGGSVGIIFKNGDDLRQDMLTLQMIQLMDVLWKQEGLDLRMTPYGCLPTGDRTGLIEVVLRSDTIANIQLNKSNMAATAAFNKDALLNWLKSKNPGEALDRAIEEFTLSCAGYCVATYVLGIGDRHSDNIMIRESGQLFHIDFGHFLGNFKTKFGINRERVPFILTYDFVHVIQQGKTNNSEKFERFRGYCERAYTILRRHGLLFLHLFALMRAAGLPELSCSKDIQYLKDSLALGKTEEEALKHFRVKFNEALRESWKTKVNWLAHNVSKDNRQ

PI3K p110 beta/p85 alpha = PI3K p110 beta/p85 alpha (Homo sapiens, UniProt P42338); experiment: Inhibition of N-terminal His6-tagged recombinant full-length human p110beta/untagged recombinant full length p85alpha expressed in baculovirus infected Sf21 cells using phosphatidylinositol as substrate in presence of gamma-32P-ATP after 5 mins by thin layer chromatographic method
Chain of PI3K p110 beta/p85 alpha (P27986 whole entry): as the sequence (P27986 whole entry) above
Chain of PI3K p110 beta/p85 alpha (P42338 whole entry): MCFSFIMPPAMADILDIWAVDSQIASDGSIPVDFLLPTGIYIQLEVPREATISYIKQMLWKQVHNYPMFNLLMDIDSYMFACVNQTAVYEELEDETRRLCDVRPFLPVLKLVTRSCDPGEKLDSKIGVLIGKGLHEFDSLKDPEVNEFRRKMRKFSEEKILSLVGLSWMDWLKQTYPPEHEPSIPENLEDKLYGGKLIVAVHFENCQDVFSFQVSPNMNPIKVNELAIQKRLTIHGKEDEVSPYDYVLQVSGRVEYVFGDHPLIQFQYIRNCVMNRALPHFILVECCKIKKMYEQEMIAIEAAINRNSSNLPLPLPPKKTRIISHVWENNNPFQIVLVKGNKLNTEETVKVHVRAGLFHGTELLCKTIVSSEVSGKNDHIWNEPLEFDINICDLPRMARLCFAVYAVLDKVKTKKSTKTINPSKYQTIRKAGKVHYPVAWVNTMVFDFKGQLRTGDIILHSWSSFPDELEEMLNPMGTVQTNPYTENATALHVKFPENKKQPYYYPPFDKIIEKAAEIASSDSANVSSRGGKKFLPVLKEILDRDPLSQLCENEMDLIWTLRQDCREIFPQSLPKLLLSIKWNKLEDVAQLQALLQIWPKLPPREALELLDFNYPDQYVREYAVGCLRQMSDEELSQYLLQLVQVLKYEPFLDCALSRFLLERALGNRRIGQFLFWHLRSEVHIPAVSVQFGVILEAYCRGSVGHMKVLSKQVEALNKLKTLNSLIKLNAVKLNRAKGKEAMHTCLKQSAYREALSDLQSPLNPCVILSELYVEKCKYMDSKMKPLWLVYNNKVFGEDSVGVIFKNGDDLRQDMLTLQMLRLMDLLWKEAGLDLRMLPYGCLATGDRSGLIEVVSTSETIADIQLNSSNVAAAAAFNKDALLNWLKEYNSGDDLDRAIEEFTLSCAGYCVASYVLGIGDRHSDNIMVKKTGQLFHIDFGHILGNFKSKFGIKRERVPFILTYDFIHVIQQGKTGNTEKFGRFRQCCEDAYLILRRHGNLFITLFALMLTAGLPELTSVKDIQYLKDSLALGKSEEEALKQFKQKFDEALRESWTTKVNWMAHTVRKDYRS

SMILES	EC50 [1] [nM]	IC50 [2] [nM]	IC50 (PI3K p110 beta/p85 alpha) [nM]
Cc1cccc2cc([C@@H](C)Nc3ncnc4[nH]cnc34)n(-c3ccccc3)c(=O)c12	< 1000	–	–
CCc1nn(Cc2cc3cccc(C)c3c(=O)n2-c2ccccc2C)c2ncnc(N)c12	< 1000	< 100	–
Nc1ncnc2c1c(-c1cccc(O)c1)nn2Cc1cc2cccc(F)c2c(=O)n1-c1ccccc1F	–	< 1000	–
Cc1cccc2cc([C@H](C)Nc3nc(Cl)ncc3Cl)n(-c3ccccc3)c(=O)c12	< 100	–	–
CCc1nn(Cc2cc3cccc(C)c3c(=O)n2-c2ccccc2)c2ncnc(N)c12	< 100	< 100	–
Cc1cccc2cc(C(C)Nc3ncnc4[nH]cnc34)n(-c3c(F)cccc3F)c(=O)c12 (centres undefined)	< 100	< 100	–
Cc1cccc2cc(C(C)Nc3ncnc4[nH]cnc34)n(CCN3CCOCC3)c(=O)c12 (centres undefined)	< 100	< 100	–
CC(C)n1c(Cn2nc(-c3cc(O)cc(F)c3)c3c(N)ncnc32)cc2cccc(F)c2c1=O	< 100	< 100	–
Cc1cccc2cc([C@H](C)Nc3nc(N)ncc3F)n(-c3ccccc3)c(=O)c12	–	< 100	–
CCc1ccccc1-n1c(Cn2nc(I)c3c(N)ncnc32)cc2cccc(C)c2c1=O	< 1000	< 100	< 10000
CNC(=O)c1cccc(-c2nn(Cc3cc4cccc(C)c4c(=O)n3-c3ccccc3C)c3ncnc(N)c23)c1	–	< 10000	–
Cc1cccc2cc(C(C)Nc3ncnc4[nH]cnc34)n(-c3ccccc3)c(=O)c12 (centres undefined)	< 100	–	–
Cc1cccc2cc(C(C)Nc3ncnc4[nH]cnc34)n(-c3cccc(F)c3)c(=O)c12 (centres undefined)	< 100	< 100	–
CCC(Nc1ncnc2[nH]cnc12)c1cc2cccc(C)c2c(=O)n1C1CCC1 (centres undefined)	< 1000	< 100	–
Cc1cccc2cc([C@H](C)Nc3ncnc4[nH]cnc34)n(-c3ccc(F)cc3)c(=O)c12	–	–	< 100
Cc1cccc2cc(Cn3nc(-c4cc(O)cc(F)c4)c4c(N)ncnc43)n(C3CCOCC3)c(=O)c12	< 100	< 100	–
Cc1cccc2cc(C(C)Nc3ncnc4[nH]cnc34)n(CCN3CCCC3)c(=O)c12 (centres undefined)	< 100	< 100	–
Nc1ncnc2c1c(I)nn2Cc1cc2cccc(Cl)c2c(=O)n1C1CC1	< 100	< 100	–
Cc1ccccc1-n1c(Cn2nc(-c3cccc(O)c3)c3c(N)nccc32)cc2cccc(C)c2c1=O	< 1000	< 100	–
CCn1c(Cn2nc(-c3cccc(O)c3)c3c(N)ncnc32)cc2cccc(C)c2c1=O	< 100	< 100	–
Cc1cccc2cc(Cn3nc(-c4cn[nH]c4)c4c(N)ncnc43)n(-c3ccccc3C(F)(F)F)c(=O)c12	< 100	< 100	–
Cc1cccc2cc(C(C)Nc3ncnc4[nH]cnc34)n(C3CCN(C)CC3)c(=O)c12 (centres undefined)	< 100	< 100	–
Cc1ccccc1-n1c(Cn2nc(C(N)=O)c3c(N)ncnc32)cc2cccc(C)c2c1=O	< 100	–	–

SMILES	EC50 [1] [nM]	IC50 [2] [nM]	IC50 (PI3K p110 beta/p85 alpha) [nM]
CCC(Nc1ncnc2[nH]cnc12)c1cc2ccccc2c(=O)n1-c1ccccc1 (centres undefined)	< 100	< 100	–
COc1ccc(-c2nn(Cc3cc4cccc(C)c4c(=O)n3-c3ccccc3F)c3ncnc(N)c23)cc1	< 1000	–	–
Cc1cccc2cc(C(C)Nc3nc(N)nc4[nH]cnc34)n(-c3ccccc3)c(=O)c12 (centres undefined)	–	–	< 100
Nc1ncnc2c1c(-c1ccc(Cl)c(O)c1)nn2Cc1cc2cccc(I)c2c(=O)n1C1CCCC1	< 10000	–	–
CC(Nc1ncnc2[nH]cnc12)c1cc2cccc(Cl)c2c(=O)n1-c1ccccc1 (centres undefined)	< 100	–	–
Cc1cccc2cc([C@H](C)Nc3ncnc4ccccc34)n(-c3ccccc3)c(=O)c12	–	< 100	–
Cc1cccc2cc(C(C)Nc3ncnc4[nH]cnc34)n(C3CCC3)c(=O)c12 (centres undefined)	< 100	< 100	–
Nc1ncnc2c1c(I)nn2Cc1cc2cccc(F)c2c(=O)n1-c1ccccc1F	–	< 10000	–
CCC(Nc1ncnc2[nH]cnc12)c1cc2cccc(C)c2c(=O)n1C1CCN(C)CC1 (centres undefined)	< 100	–	–
Nc1ncnc2c1c(-c1cc(O)cc(F)c1)nn2Cc1cc2cccc(F)c2c(=O)n1-c1ccccc1F	< 100	< 100	–
Cc1cccc2cc(Cn3nc(-c4cn[nH]c4)c4c(N)ncnc43)n(-c3ccccc3)c(=O)c12	< 100	< 100	–
Nc1ncnc2c1c(-c1cccc(O)c1)nn2Cc1cc2cccc(Cl)c2c(=O)n1C1CC1	< 100	< 100	–
CCC(Nc1ncnc2[nH]cnc12)c1cc2cccc(C)c2c(=O)n1-c1ccccc1C (centres undefined)	< 100	< 100	–
Cc1ccccc1-n1c(Cn2nc(CC#N)c3c(N)ncnc32)cc2cccc(C)c2c1=O	< 1000	< 100	–
Cc1cccc(C)c1-n1c(CNc2ncnc3[nH]cnc23)cc2cccc(C)c2c1=O	–	< 100	–
CCC(Nc1ncnc2[nH]cnc12)c1cc2cccc(C)c2c(=O)n1-c1cc(F)cc(F)c1 (centres undefined)	< 100	< 100	–
CC(Nc1ncnc2[nH]cnc12)c1cc2ccccc2c(=O)n1-c1ccccc1 (centres undefined)	< 100	< 100	–
Cc1cccc2cc([C@H](C)Nc3nc(Cl)nc4[nH]cnc34)n(C3CC3)c(=O)c12	–	< 100	< 100
Cc1cccc2cc(C(C)Nc3ncnc4[nH]cnc34)n(-c3cc(F)cc(F)c3)c(=O)c12 (centres undefined)	< 100	< 100	–
Cc1ccccc1-n1c(Cn2nc(-c3cc(O)cc(F)c3)c3c(N)ncnc32)cc2ccccc2c1=O	< 100	< 100	–
CC(C)n1c(Cn2nc(-c3cccc(O)c3)c3c(N)ncnc32)cc2ccccc2c1=O	< 1000	< 100	–
Cc1cccc2cc([C@@H](C)Nc3ncnc4[nH]cnc34)n(C3CC3)c(=O)c12	> 10000	–	–
CC(C)n1c(Cn2nc(-c3cc(O)cc(F)c3)c3c(N)ncnc32)cc2ccccc2c1=O	< 100	< 100	–

SMILES	EC50 [1] [nM]	IC50 [2] [nM]	IC50 (PI3K p110 beta/p85 alpha) [nM]
CCC(Nc1ncnc2[nH]cnc12)c1cc2cccc(C)c2c(=O)n1C(C)C (centres undefined)	< 100	< 100	–
C=C(C)c1nn(Cc2cc3cccc(C)c3c(=O)n2-c2ccccc2)c2ncnc(N)c12	–	< 100	–
CC(C)n1c(Cn2nc(-c3cccc(O)c3)c3c(N)ncnc32)cc2cccc(Cl)c2c1=O	< 100	< 100	–
Cc1cccc2cc(C(C)Nc3ncnc4[nH]cnc34)n(C3CCOCC3)c(=O)c12 (centres undefined)	< 100	< 100	–
Cc1cccc2cc(C(C)Nc3ncnc4[nH]cnc34)n(C3CC3)c(=O)c12 (centres undefined)	< 100	–	–
Cc1cccc2cc(Cn3nc(C(F)F)c4c(N)ncnc43)n(-c3ccccc3)c(=O)c12	< 100	< 100	–
Cc1ccccc1-n1c(Cn2nc(-c3ccc(CN)cc3)c3c(N)ncnc32)cc2cccc(C)c2c1=O	–	< 10000	–
Cc1ccccc1-n1c(Cn2nc(C(=O)NO)c3c(N)ncnc32)cc2cccc(C)c2c1=O	< 100	–	–
C[C@H](Nc1ncnc2nc[nH]c12)c1cc2cccc(Cl)c2c(=O)n1-c1ccccc1 [DUVELISIB]	< 100	–	–
CC(C)n1c(Cn2nc(-c3cc(O)cc(F)c3)c3c(N)ncnc32)cc2cccc(Cl)c2c1=O	< 100	< 100	–
CC(C)n1c(Cn2nc(I)c3c(N)ncnc32)cc2cccc(F)c2c1=O	–	< 10000	–
Cc1cccc2cc(Cn3nc(-c4ccc(Cl)c(O)c4)c4c(N)ncnc43)n(C(C)C)c(=O)c12	< 100	< 100	–
Cc1cccc2cc(C(C)Nc3ncnc4[nH]cnc34)n(C(C)C)c(=O)c12 (centres undefined)	< 100	< 100	–
Cc1cccc2cc([C@H](C)Nc3nc(N)ncc3Cl)n(C3CC3)c(=O)c12	–	< 100	–
Cc1cccc2cc(Cn3nc(-c4cc(O)cc(F)c4)c4c(N)ncnc43)n(C)c(=O)c12	< 100	< 100	–
Nc1ncnc2c1c(I)nn2Cc1cc2cccc(I)c2c(=O)n1C1CCCC1	< 10000	–	–
CC(C)n1c(Cn2nc(-c3cccc(O)c3)c3c(N)ncnc32)cc2cccc(F)c2c1=O	< 1000	–	–
Cc1cccc2cc([C@H](C)Nc3nc(F)nc4[nH]cnc34)n(C3CC3)c(=O)c12	–	< 100	< 100
C=Cc1nn(Cc2cc3cccc(C)c3c(=O)n2-c2ccccc2)c2ncnc(N)c12	< 100	< 100	–
Cc1cccc2cc([C@H](C)Nc3ncnc4[nH]nc(Cl)c34)n(C3CC3)c(=O)c12	–	< 100	–
Cc1cccc2cc(Cn3nc(-c4cccc(O)c4)c4c(N)ncnc43)n(C)c(=O)c12	< 1000	< 100	–
Cc1cccc2cc([C@@H](C)Nc3ncnc4[nH]cnc34)n(C3CCC3)c(=O)c12	< 10000	–	–
